IC50 data for three compounds are collected here from ChEMBL document CHEMBL5338737, “Lysine-Specific Demethylase 1 Promises to Be a Novel Target in Cancer Drug Resistance: Therapeutic Implications” (J Med Chem, 2023).

The target in assay [1] is T1, Lysine-specific histone demethylase 1A (Homo sapiens, UniProt O60341).
Description: Inhibition of LSD1 (unknown origin)
In assay [2] the target is T1, Lysine-specific histone demethylase 1A. The experiment in a line: Inhibition of recombinant LSD1 (unknown origin) incubated for 1 hr by fluorescence based analysis.

For the compound `C/C(=N\NC(=O)c1cccc(S(=O)(=O)N2CCN(C)CC2)c1)c1cc(Cl)ccc1O`, the IC50 (commonly the concentration at which inhibition is half-maximal) in assay [1] was 127 nM. Compound `NC1CC1c1ccc(NC(=O)c2ccc(O)c3ncccc23)cc1` (stereo not drawn) gave an IC50 in assay [1] below 1000 nM. With `COc1cc2c(c(O)c1OC)c(=O)c1ccccc1n2C` [ARBORININE], the IC50 in assay [2] is 400 nM.
